Data: publication PMC10343472, “Cyclopentenylcytosine (CPE-C): In Vitro and In Vivo Evaluation as an Antiviral against Adenoviral Ocular Infections” (Molecules, 2023)

Assays:
[1] = signs of systemic toxicity in the rabbit studies after topical ocular administration; assay type: in vivo; conditions: topical ocular administration in the doses given
Description: Like 2′,3′-dideoxycytidine (ddC; zalcitabine), the most important unresolved issue affecting the future commercial development of CPE-C is systemic safety. The untimely deaths reported in 1995 of two cancer patients treated with intravenous CPE-C [35] raises serious concerns for the treatment of a self-limited non-blinding ocular infection. […] Therefore, the challenge for a pharmaceutical company will be to generate convincing and reassuring systemic safety data following topical administration. Given the negative clinical history associated with this compound, a persuasive package of unambiguous data will be required to convince appropriate governmental regulatory agencies to grant approval for the proposed ocular indication for CPE-C as the first topical anti-adenoviral drug.

NZW rabbit eyes = experiment: ocular toxicity in Draize rabbit model; assay type: in vivo, New Zealand white (NZW) rabbits; design: key to Maximum Mean Total Score: Draize/MMTS ocular toxicity score; as to Draize irritation class: key: N = Non-Irritating; PN = Practically Non-Irritating
Procedure: CPE-C was evaluated for ocular toxicity using the standard Draize ocular scoring method which has been in use to determine the toxicity of cosmetics and chemicals since 1944 [39]. CPE-C ointments (3%, 2%, 1%, 0.5%) were administered topically 4 times daily for 4 days in uninfected, non-scarified NZW rabbit eyes (n = 2). Additionally, the 3% CPE-C concentration was also evaluated in rabbit eyes after corneal scarification. Overall, CPE-C, in concentrations up to 3% in an Aquaphor vehicle, appeared to be non-toxic to NZW rabbit eyes. […] There appeared to be no inhibition of corneal epithelial wound healing by the CPE-C in eyes that had undergone corneal epithelial scarification. Since the 3% CPE-C was the highest non-toxic concentration tested, this concentration was chosen for the in vivo antiviral efficacy testing in the Ad5/NZW rabbit ocular replication model.
CPE-C ointment (3%, 2%, 1%, 0.5%) was administered topically 4 times daily for 4 days in uninfected, non-scarified NZW rabbit eyes (n = 2). The CPE-C ointments were administered in approximately ½ inch strips per dose via a syringe with a 19-gauge cannula attached. The eyes were closed and gently rubbed to produce even distribution of antiviral over the entire ocular surface. The 3% CPE-C concentration was also evaluated in rabbit eyes after corneal scarification (general anesthesia with 40 mg/kg of ketamine and 4 mg/kg of xylazine administered intramuscularly and topical ocular anesthesia with proparacaine followed by 12 cross-hatched strokes with a #25 needle). All eyes were evaluated in a masked fashion for ocular toxicity using the Draize and MMTS scoring system on days 2, 3, and 4.

[2] = 1% ointment 4 times daily, non-scarified eyes, Day 2
[3] = 1% ointment 4 times daily, non-scarified eyes, Day 3
[4] = 1% ointment 4 times daily, non-scarified eyes, Day 4
[5] = 2% ointment 4 times daily, non-scarified eyes, Day 2
[6] = 2% ointment 4 times daily, non-scarified eyes, Day 3
[7] = 2% ointment 4 times daily, non-scarified eyes, Day 4
[8] = 3% ointment 4 times daily, non-scarified eyes, Day 2

Q: For Nc1ccn([C@@H]2C=C(CO)[C@@H](O)[C@H]2O)c(=O)n1 [CPE-C, Cyclopentenylcytosine], which “signs of systemic toxicity (decreased appetite, weight loss, wasting, death)” value [1] is on record?
A: no obvious signs of systemic toxicity

Q: What about the “Maximum Mean Total Score” value (NZW rabbit eyes; 0.5% ointment 4 times daily, non-scarified eyes, Day 2) of the same molecule?
A: 1.0

Q: And the “Maximum Mean Total Score” value (NZW rabbit eyes; 0.5% ointment 4 times daily, non-scarified eyes, Day 3)?
A: 1.0

Q: And the “Maximum Mean Total Score” value (NZW rabbit eyes; 0.5% ointment 4 times daily, non-scarified eyes, Day 4)?
A: 1.0

Q: What about the Draize irritation class (NZW rabbit eyes; [2]) of the same molecule?
A: N

Q: And the “Maximum Mean Total Score” value (NZW rabbit eyes; [2])?
A: 0.0

Q: What about the Draize irritation class (NZW rabbit eyes; [3]) of the same molecule?
A: N

Q: And the “Maximum Mean Total Score” value (NZW rabbit eyes; [3])?
A: 0.0

Q: And the Draize irritation class (NZW rabbit eyes; [4])?
A: N

Q: What about the “Maximum Mean Total Score” value (NZW rabbit eyes; [4]) of the same molecule?
A: 0.0

Q: And the Draize irritation class (NZW rabbit eyes; [5])?
A: N

Q: What about the “Maximum Mean Total Score” value (NZW rabbit eyes; [5]) of the same molecule?
A: 0.0

Q: And the Draize irritation class (NZW rabbit eyes; [6])?
A: N

Q: What about the “Maximum Mean Total Score” value (NZW rabbit eyes; [6]) of the same molecule?
A: 0.0

Q: What about the Draize irritation class (NZW rabbit eyes; [7]) of the same molecule?
A: N

Q: And the “Maximum Mean Total Score” value (NZW rabbit eyes; [7])?
A: 0.0

Q: What about the “Maximum Mean Total Score” value (NZW rabbit eyes; 3% ointment 4 times daily, eyes with scarification, Day 2) of the same molecule?
A: 1.0

Q: And the “Maximum Mean Total Score” value (NZW rabbit eyes; 3% ointment 4 times daily, eyes with scarification, Day 3)?
A: 1.0

Q: And the “Maximum Mean Total Score” value (NZW rabbit eyes; 3% ointment 4 times daily, eyes with scarification, Day 4)?
A: 1.0

Q: What about the Draize irritation class (NZW rabbit eyes; [8]) of the same molecule?
A: N

Q: What about the “Maximum Mean Total Score” value (NZW rabbit eyes; [8]) of the same molecule?
A: 0.0

Q: And the “Maximum Mean Total Score” value (NZW rabbit eyes; 3% ointment 4 times daily, non-scarified eyes, Day 3)?
A: 2.0

Q: What about the “Maximum Mean Total Score” value (NZW rabbit eyes; 3% ointment 4 times daily, non-scarified eyes, Day 4) of the same molecule?
A: 2.0

Q: What about the “ocular irritation by Draize scoring” value (NZW rabbit eyes; 3% ointment, scarified eyes, 4 times daily for 4 days) of the same molecule?
A: practically non-irritating

Q: What about the “inhibition of corneal epithelial wound healing” value (NZW rabbit eyes; eyes that had undergone corneal epithelial scarification) of the same molecule?
A: no inhibition

Q: And the “ocular irritation by Draize scoring” value (NZW rabbit eyes; rabbit, in vivo)?
A: non-irritating or practically non-irritating
